The term IC50 denotes the concentration at which inhibition is half-maximal.

Consider four compounds from patent publication US10005782B2, “Substituted pyrazolo[1,5-a]pyrimidines as bruton's tyrosine kinase modulators” (BeiGene, Ltd., priority 2013, dated 2018).

This test deals with Recombinant Btk (Homo sapiens (Human), UniProt Q06187). Briefly: Btk kinase assay (TR-FRET).
The mark [1] stands for this setting: read-out: IC50 (nM) Btk, 1 hour pre-incubation, ATP at Km.

Structures are written as SMILES. Like-named read-outs stand apart in the source and are kept apart here.

Recombinant Btk, sequence (Q06187 whole entry): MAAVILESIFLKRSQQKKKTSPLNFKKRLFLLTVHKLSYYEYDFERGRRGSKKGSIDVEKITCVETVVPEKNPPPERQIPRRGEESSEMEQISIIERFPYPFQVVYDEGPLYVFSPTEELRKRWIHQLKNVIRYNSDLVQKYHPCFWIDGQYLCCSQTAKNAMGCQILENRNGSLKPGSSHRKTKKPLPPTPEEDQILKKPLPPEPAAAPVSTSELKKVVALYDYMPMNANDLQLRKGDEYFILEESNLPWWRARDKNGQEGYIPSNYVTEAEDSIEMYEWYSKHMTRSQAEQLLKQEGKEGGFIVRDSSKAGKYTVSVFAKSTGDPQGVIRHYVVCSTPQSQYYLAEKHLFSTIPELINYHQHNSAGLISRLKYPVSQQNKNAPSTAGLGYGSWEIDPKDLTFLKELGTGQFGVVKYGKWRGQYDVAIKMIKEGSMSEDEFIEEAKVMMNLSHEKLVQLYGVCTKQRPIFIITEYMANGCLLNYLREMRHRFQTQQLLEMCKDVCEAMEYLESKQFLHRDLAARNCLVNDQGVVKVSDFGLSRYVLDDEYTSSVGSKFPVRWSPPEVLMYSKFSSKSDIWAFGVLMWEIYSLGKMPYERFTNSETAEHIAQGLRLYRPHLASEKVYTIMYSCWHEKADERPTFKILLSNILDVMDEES

Regarding `NC(=O)c1c(-c2ccc(Oc3ccccc3)cc2)nn2c1NCCC2c1cccc(N)c1` (single isomer, unassigned) [Compound 2b, 7-(3-Aminophenyl)-2-(4-phenoxyphenyl)-4,5,6,7-tetrahydropyrazolo[1,5-a]pyrimidine-3-carboxamide], the IC50 (read-out: IC50 (nM) Btk, 1 hour pre-incubation, ATP at Km, listed as 2b (peak 2)) worked out at 210 nM.

On to `C=CC(=O)Nc1ccccc1C1CCNc2c(C(N)=O)c(-c3ccc(OC)c(OC)c3)nn21` (stereo not shown) [Compound 168, 7-(2-Acrylamidophenyl)-2-(3,4-dimethoxyphenyl)-4,5,6,7-tetrahydropyrazolo[1,5-a]pyrimidine-3-carboxamide], for which the IC50 under setting [1] is 3.7 nM.

As for `C=CC(=O)Nc1ccccc1C1CCNc2c(C(N)=O)c(-c3ccc(F)c(F)c3)nn21` (stereo not shown) [Compound 137, 7-(2-acrylamidophenyl)-2-(3,4-difluorophenyl)-4,5,6,7-tetrahydropyrazolo[1,5-a]pyrimidine-3-carboxamide], the IC50 under setting [1] was 3.7 nM.

`NC(=O)c1c(-c2ccc(Oc3ccccc3)cc2)nn2c1NCCC2c1cccc(N)c1` (single isomer, unassigned) [Compound 2a, 7-(3-Aminophenyl)-2-(4-phenoxyphenyl)-4,5,6,7-tetrahydropyrazolo[1,5-a]pyrimidine-3-carboxamide]: the IC50 (read-out: IC50 (nM) Btk, 1 hour pre-incubation, ATP at Km, listed as 2a (peak 1)) is 270 nM.
